Assay results reported in patent US11564928B1, “Cannabinoid receptor type 2 (CB2) modulators and uses thereof” (Teon Therapeutics, Inc., priority 2020, dated 2023).
Like-named read-outs stand apart in the source and are kept apart here.

Legend:
human recombinant CB1R = human recombinant CB1R (Homo sapiens (Human), UniProt P21554); assay: CB1 receptor binding assay ([3H]CP-55,940 displacement, HEK-293 membranes)
Method: The compounds were evaluated in CB1R and CB2R binding assays using membranes from HEK-293 cells transfected with cDNAs encoding the human recombinant CB1R (Bmax=[…] protein) and human recombinant CB2R (Bmax=[…] protein) (Perkin-Elmer). […]. Compounds were tested following the procedure described by the cell membrane manufacturer. […] CB2R binding assays were carried out with two different buffers: incubation buffer (Tris-HCl, 50 mM; MgCl2, 5 mM; CaCl2 1 mM; BSA, 0.2% at pH 7.4) and washing buffer (Tris-HCl, 50 mM; NaCl 500 mM; BSA, 0.1% at pH 7.4). […] Assays were performed in duplicate and incubated for […] at 37° C. After the incubation, the assay mixture is filtered through 96 GF/C filter plates (Perkin Elmer #6005174) using Perkin Elmer Filtermate Harvester, and then washed four times with ice-cold washing buffer. The filters are dried for 1 hour at 50° C. and [^3H] trapped on filter counted for radioactivity in Perkin Elmer Microscint 20 cocktail (#6013329) using Perkin Elmer MicroBeta2 Reader. […] Data are analyzed and IC50 is calculated using GraphPad Prism 5 and the model “log(inhibitor) vs. response—Variable slope”. The binding affinity of the compounds is Determined by Using the Cheng and Prusoff Equation Ki=IC50/(1+[radioligand]/Kd).

human CB2 receptor = human CB2 receptor (Homo sapiens (Human), UniProt P34972); assay: CB2 receptor binding assay ([3H]CP-55,940 displacement, HEK-293 membranes)
Method: The compounds were evaluated in CB1R and CB2R binding assays using membranes from HEK-293 cells transfected with cDNAs encoding the human recombinant CB1R (Bmax=[…] protein) and human recombinant CB2R (Bmax=[…] protein) (Perkin-Elmer). […] Compounds were tested following the procedure described by the cell membrane manufacturer. […] CB2R binding assays were carried out with two different buffers: incubation buffer (Tris-HCl, 50 mM; MgCl2, 5 mM; CaCl2 1 mM; BSA, 0.2% at pH 7.4) and washing buffer (Tris-HCl, 50 mM; NaCl 500 mM; BSA, 0.1% at pH 7.4). […] Assays were performed in duplicate and incubated for […] at 37° C. […] Data are analyzed and IC50 is calculated using GraphPad Prism 5 and the model “log(inhibitor) vs. response—Variable slope”. The binding affinity of the compounds is Determined by Using the Cheng and Prusoff Equation Ki=IC50/(1+[radioligand]/Kd).

[1] = membranes of HEK-293 cells with human recombinant CB1R, [3H]CP-55,940, read-out: CB1 IC50
[2] = membranes of HEK-293 cells with human recombinant CB2R, [3H]CP-55,940, read-out: CB2 IC50
[3] = membranes of HEK-293 cells with human recombinant CB2R, [3H]CP-55,940, class symbols, read-out: CB2 IC50
[4] = membranes of HEK-293 cells with human recombinant CB1R, [3H]CP-55,940, class symbols, read-out: CB1 IC50

Sequence of human recombinant CB1R (P21554 whole entry): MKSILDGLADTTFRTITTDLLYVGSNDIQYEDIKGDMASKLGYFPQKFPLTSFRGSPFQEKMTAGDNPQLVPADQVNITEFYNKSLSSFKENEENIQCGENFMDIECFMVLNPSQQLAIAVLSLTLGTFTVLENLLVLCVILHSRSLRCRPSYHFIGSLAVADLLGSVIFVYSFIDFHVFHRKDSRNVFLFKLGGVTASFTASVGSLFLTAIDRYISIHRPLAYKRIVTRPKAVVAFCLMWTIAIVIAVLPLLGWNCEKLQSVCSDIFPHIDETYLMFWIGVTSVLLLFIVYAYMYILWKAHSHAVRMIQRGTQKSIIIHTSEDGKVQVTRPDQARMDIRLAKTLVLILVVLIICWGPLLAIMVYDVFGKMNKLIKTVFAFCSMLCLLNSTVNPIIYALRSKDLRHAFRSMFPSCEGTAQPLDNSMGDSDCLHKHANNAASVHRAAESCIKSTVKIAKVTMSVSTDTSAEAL
Sequence of human CB2 receptor (P34972 whole entry): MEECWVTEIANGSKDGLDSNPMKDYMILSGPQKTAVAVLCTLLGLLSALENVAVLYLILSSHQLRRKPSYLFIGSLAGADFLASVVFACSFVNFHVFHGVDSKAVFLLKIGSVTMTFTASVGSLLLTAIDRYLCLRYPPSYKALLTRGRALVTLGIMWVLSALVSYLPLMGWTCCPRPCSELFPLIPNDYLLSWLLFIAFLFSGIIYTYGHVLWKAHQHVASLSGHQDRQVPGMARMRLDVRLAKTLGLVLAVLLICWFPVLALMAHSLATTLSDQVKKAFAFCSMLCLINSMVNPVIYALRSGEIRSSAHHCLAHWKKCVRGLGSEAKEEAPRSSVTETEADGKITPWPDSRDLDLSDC

Compound | IC50 (human recombinant CB1R; [1]) | IC50 (human CB2 receptor; [2]) | IC50 (human CB2 receptor; [3]) | IC50 (human recombinant CB1R; [4]) | other results
COc1ccc(-c2cnc3c(c2)cc(C(=O)NC2CCC(C)(C)CC2)c(=O)n3CCN2CCOCC2)cc1 [Compound 26, N-(4,4-dimethylcyclohexyl)-6-(4-methoxyphenyl)-1-(2-morpholinoethyl)-2-oxo-1,2-dihydro-1,8-naphthyridine-3-carboxamide] | > 10 µM | 0.0022 µM |  |  | 
COc1ccc(-c2cnc3c(c2)cc(C(=O)NC2CCC(F)(F)CC2)c(=O)n3CCN2CCOCC2)cc1 [Compound 27, N-(4,4-difluorocyclohexyl)-6-(4-methoxyphenyl)-1-(2-morpholinoethyl)-2-oxo-1,2-dihydro-1,8-naphthyridine-3-carboxamide] | > 10 µM | 0.002 µM |  |  | 
COc1ccc(-c2cnc3c(c2)cc(C(=O)NC2CCC4(CC2)CC4)c(=O)n3CCN2CCOCC2)cc1 [Compound 28, 6-(4-methoxyphenyl)-1-(2-morpholinoethyl)-2-oxo-N-(spiro[2.5]octan-6-yl)-1,2-dihydro-1,8-naphthyridine-3-carboxamide] | > 10 µM | 0.0007 µM |  |  | 
O=C(NC1CC2(CCC2)C1)c1cc2cc(-c3ccc(F)cc3)cnc2n(CCN2CCOCC2)c1=O [Compound 32, 6-(4-fluorophenyl)-1-(2-morpholinoethyl)-2-oxo-N-(spiro[3.3]heptan-2-yl)-1,2-dihydro-1,8-naphthyridine-3-carboxamide] | 0.039 µM | 0.0008 µM |  |  | 
O=C(NC1CC2(CCC2)C1)c1cc2cc(-c3ccccn3)cnc2n(CCN2CCOCC2)c1=O [Compound 34, 1-(2-morpholinoethyl)-2-oxo-6-(pyridin-2-yl)-N-(spiro[3.3]heptan-2-yl)-1,2-dihydro-1,8-naphthyridine-3-carboxamide] | 0.184 µM | 0.001 µM |  |  | 
O=C(NC1CC2(CCC2)C1)c1cc2cc(-c3ccncn3)cnc2n(CCN2CCOCC2)c1=O [Compound 35, 1-(2-morpholinoethyl)-2-oxo-6-(pyrimidin-4-yl)-N-(spiro[3.3]heptan-2-yl)-1,2-dihydro-1,8-naphthyridine-3-carboxamide] | 0.358 µM | 0.0075 µM |  |  | 
O=C(NC1CC2(CCC2)C1)c1cc2cc(-c3ccc(F)cn3)cnc2n(CCN2CCOCC2)c1=O [Compound 37, 6-(5-fluoropyridin-2-yl)-1-(2-morpholinoethyl)-2-oxo-N-(spiro[3.3]heptan-2-yl)-1,2-dihydro-1,8-naphthyridine-3-carboxamide] | 0.112 µM | 0.0006 µM |  |  | 
O=C(NC1CC2(CCC2)C1)c1cc2cc(-c3ncccn3)cnc2n(CCN2CCOCC2)c1=O [Compound 38, 1-(2-morpholinoethyl)-2-oxo-6-(pyrimidin-2-yl)-N-(spiro[3.3]heptan-2-yl)-1,2-dihydro-1,8-naphthyridine-3-carboxamide] |  |  | < 0.1 µM |  | IC50 (human recombinant CB1R): 0.1 to 0.999 µM
COc1ccc(-c2ccc3c(c2)cc(C(=O)NC2CCC(C)(C)CC2)c(=O)n3CCN2CCOCC2)cc1 [Compound 39, N-(4,4-dimethylcyclohexyl)-6-(4-methoxyphenyl)-1-(2-morpholinoethyl)-2-oxo-1,2-dihydroquinoline-3-carboxamide] | > 10 µM | 0.0012 µM |  |  | 
CC(NC(=O)c1cc2cc(-c3ccc(C#N)cn3)cnc2n(CCN2CCOCC2)c1=O)c1ccc(C#N)cc1 (stereo not drawn) [Compound 41, N-(1-(4-cyanophenyl)ethyl)-6-(5-cyanopyridin-2-yl)-1-(2-morpholinoethyl)-2-oxo-1,2-dihydro-1,8-naphthyridine-3-carboxamide] |  |  |  | > 1 µM | IC50 (human CB2 receptor): 0.1 to 0.999 µM
O=C(NC12CC(C1)C2)c1cc2cc(-c3ccc(OC(F)F)cc3)cnc2n(CCN2CCOCC2)c1=O [Compound 54, N-(bicyclo[1.1.1]pentan-1-yl)-6-(4-(difluoromethoxy)phenyl)-1-(2-morpholinoethyl)-2-oxo-1,2-dihydro-1,8-naphthyridine-3-carboxamide] |  |  | < 0.1 µM | > 1 µM | 
CC(NC(=O)c1cc2cc(-c3ccc(C#N)cn3)cnc2n(CC(C)(C)N2CCOCC2)c1=O)c1ccc(F)cc1 (stereo not drawn) [Compound 56, 6-(5-cyanopyridin-2-yl)-N-(1-(4-fluorophenyl)ethyl)-1-(2-methyl-2-morpholinopropyl)-2-oxo-1,2-dihydro-1,8-naphthyridine-3-carboxamide] |  |  | < 0.1 µM | > 1 µM | 
CC(NC(=O)c1cc2cc(Br)cnc2n(Cc2ncccn2)c1=O)c1ccc(F)cc1 (stereo not drawn) [Compound 64, 6-bromo-N-(1-(4-fluorophenyl)ethyl)-2-oxo-1-(pyrimidin-2-ylmethyl)-1,2-dihydro-1,8-naphthyridine-3-carboxamide] |  |  | > 1 µM | > 1 µM | 
CC(NC(=O)c1cc2cc(-c3ccc(F)cc3)cnc2n(Cc2ncccn2)c1=O)c1ccc(F)cc1 (stereo not drawn) [Compound 65, 6-(4-fluorophenyl)-N-(1-(4-fluorophenyl)ethyl)-2-oxo-1-(pyrimidin-2-ylmethyl)-1,2-dihydro-1,8-naphthyridine-3-carboxamide] |  |  |  | > 1 µM | IC50 (human CB2 receptor): 0.1 to 0.999 µM
CC(C)Oc1ccc(-c2cnc3c(c2)cc(C(=O)NC2CC4(CCC4)C2)c(=O)n3Cc2ccc(F)cc2)cc1 [Compound 66, 6-(4-isopropoxyphenyl)-1-(4-fluorobenzyl)-2-oxo-N-(spiro[3.3]heptan-2-yl)-1,2-dihydro-1,8-naphthyridine-3-carboxamide] |  |  | > 1 µM | > 1 µM | 
O=C(NC1CC2(CCC2)C1)c1cc2cc(-c3ccc(OC4CC4)cc3)cnc2n(Cc2ccc(F)cc2)c1=O [Compound 67, 6-(4-cyclopropoxyphenyl)-1-(4-fluorobenzyl)-2-oxo-N-(spiro[3.3]heptan-2-yl)-1,2-dihydro-1,8-naphthyridine-3-carboxamide] |  |  | > 1 µM | > 1 µM | 
CS(=O)(=O)c1ccc(-c2cnc3c(c2)cc(C(=O)NC2CC4(CCC4)C2)c(=O)n3Cc2ccc(F)cc2)cc1 [Compound 68, 1-(4-fluorobenzyl)-6-(4-(methylsulfonyl)phenyl)-2-oxo-N-(spiro[3.3]heptan-2-yl)-1,2-dihydro-1,8-naphthyridine-3-carboxamide] |  |  |  | > 1 µM | IC50 (human CB2 receptor): 0.1 to 0.999 µM
O=C(Nc1ccccn1)c1cc2cc(Br)cnc2n(Cc2ccc(F)cc2)c1=O [Compound 70, 6-bromo-1-(4-fluorobenzyl)-2-oxo-N-(pyridin-2-yl)-1,2-dihydro-1,8-naphthyridine-3-carboxamide] |  |  | < 0.1 µM | > 1 µM | 
Cc1ccc(NC(=O)c2cc3cc(Br)cnc3n(Cc3ccc(F)cc3)c2=O)cc1 [Compound 71, 6-bromo-1-(4-fluorobenzyl)-2-oxo-N-(p-tolyl)-1,2-dihydro-1,8-naphthyridine-3-carboxamide] |  |  | > 1 µM | > 1 µM | 
Cc1c(C(=O)NC2CCC(C)CC2)c(=O)n(CCN2CCOCC2)c2ncc(Br)cc12 (stereo not drawn) [Compound 72, 6-bromo-4-methyl-N-(4-methylcyclohexyl)-1-(2-morpholinoethyl)-2-oxo-1,2-dihydro-1,8-naphthyridine-3-carboxamide] |  |  | < 0.1 µM | > 1 µM | 
COc1ccc(-c2cnc3c(c2)c(C)c(C(=O)NC2CCC(C)CC2)c(=O)n3CCN2CCOCC2)cc1 (stereo not drawn) [Compound 73, 6-(4-methoxyphenyl)-4-methyl-N-(4-methylcyclohexyl)-1-(2-morpholinoethyl)-2-oxo-1,2-dihydro-1,8-naphthyridine-3-carboxamide] |  |  |  | > 1 µM | IC50 (human CB2 receptor): 0.1 to 0.999 µM
COc1ccc(-c2cnc3c(c2)c(C)c(C(=O)NC2CC4(CCC4)C2)c(=O)n3CCN2CCOCC2)cc1 [Compound 74, 6-(4-methoxyphenyl)-4-methyl-1-(2-morpholinoethyl)-2-oxo-N-(spiro[3.3]heptan-2-yl)-1,2-dihydro-1,8-naphthyridine-3-carboxamide] |  |  | > 1 µM | > 1 µM | 
COc1ccc(-c2cnc3c(c2)c(C)c(C(=O)NC(C)c2ccc(F)cc2)c(=O)n3CCN2CCOCC2)cc1 (stereo not drawn) [Compound 75, N-(1-(4-fluorophenyl)ethyl)-6-(4-methoxyphenyl)-4-methyl-1-(2-morpholinoethyl)-2-oxo-1,2-dihydro-1,8-naphthyridine-3-carboxamide] |  |  | > 1 µM | > 1 µM | 
Cc1c(C(=O)NC2CC3(CCC3)C2)c(=O)n(Cc2ccc(F)cc2)c2ncc(Br)cc12 [Compound 76, 6-bromo-1-(4-fluorobenzyl)-4-methyl-2-oxo-N-(spiro[3.3]heptan-2-yl)-1,2-dihydro-1,8-naphthyridine-3-carboxamide] |  |  | < 0.1 µM | > 1 µM | 
